Source: ChEMBL document CHEMBL3045984, “Resistance to HPPD-inhibiting herbicides in a population of waterhemp (Amaranthus tuberculatus) from Illinois, United States” (2011)

How the values were obtained:
Amaranthus tuberculatus [1] = assay: Resistance ratio of GR50 for Amaranthus tuberculatus biotype MCR to GR50 for Amaranthus tuberculatus biotype WCS; type: functional
Amaranthus tuberculatus [2] = assay: Resistance ratio of GR50 for Amaranthus tuberculatus biotype MCR to GR50 for Amaranthus tuberculatus biotype ACR; type: functional

Structure (SMILES): CS(=O)(=O)c1ccc(C(=O)C2C(=O)CCCC2=O)c([N+](=O)[O-])c1 [MESOTRIONE]
- Ratio (Amaranthus tuberculatus [1]): 35
- Ratio (Amaranthus tuberculatus [2]): 10
